This data set concerns human peripheral blood cells (lymphocytes). As to the kind of experiment: γδT lymphocyte proliferation induction, BrdU labeling after 3 days of culture. It is filed as cell-based. The arrangement: key to cytotoxicity: *: cytotoxicity. The following applies: 3 days culture; for % stimulation relative to the control: BrdU. As for the experimental part:
The γδT lymphocyte proliferation-inducing activity is tested in the following way: human peripheral blood cells are cultured in the presence of an RPMI-type culture medium supplemented with L-glutamine (2 mM), penicillin/streptomycin (50 μg/50 IU/ml) and foetal calf serum (10%). The C-glycoside derivatives 1 and 2 are added at various concentrations (10 to 0.05 mM), along with phytohemagglutin (PHA at […]), a positive control for total lymphocyte proliferation.
For orientation: Uptake of a labelled nucleoside into DNA is a usual measure of proliferation.

As for `CC(=O)C[C@@H]1OC[C@@H](O)[C@H](O)[C@H]1O` [Compound 1, 1-(C-β-D-xylopyranosyl)propan-2-one], the “% stimulation relative to the control” value (0.05 mM) came out at 108%; the “% stimulation relative to the control” value (0.1 mM) turned out to be 115%; the “% stimulation relative to the control” value (0.5 mM) turned out to be 84%; the “% stimulation relative to the control” value (1 mM) came to 131%; the “% stimulation relative to the control” value (5 mM) worked out at 106%; the “% stimulation relative to the control” value (10 mM) was determined as 74%. Also, the cytotoxicity entry by setting is: (5 mM) “*”; (10 mM) “*”.
With `CC(=O)C[C@@H]1O[C@H](CO)[C@@H](O)[C@H](O)[C@H]1O` [Compound 2, 1-(C-β-D-glucopyranosyl)propan-2-one], the “% stimulation relative to the control” value is on record as 64% (0.05 mM); 76% (0.1 mM); 90% (0.5 mM); 123% (1 mM); 227% (5 mM); 224% (10 mM).

Values taken from patent US20070265210A1, “Administration of C-glycoside compounds for protecting and/or activating gammadeltaT lymphocytes” (L'OREAL, priority 2006, published 2007).
